Common to all, as to design: species or system AML cell lines (8); Primary HTS, single concentration about 10 uM, Cell Titer Glo viability; log10 luminescence, per cent inhibition relative to cycloheximide control
Holding throughout (conditions): 72 h, relative to cycloheximide control, log10 luminescence, inhibitor
(In general: ATP-based viability assays read luminescence as a measure of living cells.)

Experiment [1] has as its system ML-2.
The test system of experiment [2] is CMS.
The subject of experiment [3] is M07e.
The subject of experiment [4] is U937.
The subject of experiment [5] is CHRF288-11.
The subject of experiment [6] is CMK.
The test system of experiment [7] is MOLM-13.
For experiment [8], the system named is MV4-11.

Read-outs that look alike come from different tables or passages of the source.

For `Cc1nnc(-c2cccc(-c3ccc(C(=O)NCC4CC4)cc3)c2)o1` [SJ000573288-1, N5058-19-3], in experiment [1], the ML-2 %inh is 2.007%. In addition, the CMS %inh in experiment [2] is given as -1.146%. The M07e %inh in experiment [3] turned out to be 0.8786%. Also, the U937 %inh in experiment [4] is -1.478%. Moreover, the CHRF288-11 %inh in experiment [5] is -4.251%. Moreover, the CMK %inh in experiment [6] is reported as 3.578%. Further, in experiment [7], the MOLM-13 %inh stood at 2.072%. Further, in experiment [8], the MV4-11 %inh is reported as -0.4477%.

Consider `CCOC(=O)[C@H](CCc1ccccc1)N[C@@H](C)C(=O)N1[C@H](C(=O)O)C[C@H]2CCCC[C@@H]21` [SJ000286095-3, TRANDOLAPRIL], for which the ML-2 %inh in experiment [1] was -0.1668%. Moreover, the CMS %inh in experiment [2] was -0.04443%. Also, the M07e %inh in experiment [3] was found to be 4.953%. Also, the U937 %inh in experiment [4] came to 1.075%. Moreover, in experiment [5], the CHRF288-11 %inh is given as 2.18%. For the same molecule, the CMK %inh in experiment [6] is recorded as -2.955%. The MOLM-13 %inh in experiment [7] was 4.361%. For the same molecule, in experiment [8], the MV4-11 %inh stood at 3.149%.

With `N#Cc1cccc(C(=O)c2cnn(-c3ccc(F)cc3)c2N)c1` [SJ000581124-1], the ML-2 %inh in experiment [1] was 1.377%. Besides, in experiment [2], the CMS %inh turned out to be 0.5963%. Moreover, in experiment [3], the M07e %inh worked out at 5.547%. Moreover, the U937 %inh in experiment [4] worked out at 2.317%. In addition, the CHRF288-11 %inh in experiment [5] is reported as -6.686%. Moreover, the CMK %inh in experiment [6] came to 1.804%. For the same molecule, the MOLM-13 %inh in experiment [7] is listed as 0.9707%. The MV4-11 %inh in experiment [8] is -1.446%.

For `CN(C)C(=O)O[C@@H]1CN[C@@H](C#Cc2cc3ncnc(Nc4ccc(OCc5cccc(F)c5)c(Cl)c4)c3s2)C1` [SJ000573053-2, U20298/139/1 | U20747/39/1], the ML-2 %inh in experiment [1] worked out at 1.706%. In addition, in experiment [2], the CMS %inh is reported as 4.277%. The M07e %inh in experiment [3] is on record as -1.206%. Also, the U937 %inh in experiment [4] was found to be 3.489%. In addition, the CHRF288-11 %inh in experiment [5] came out at 39.41%. In experiment [6], the CMK %inh is recorded as -4.505%. Besides, the MOLM-13 %inh in experiment [7] is reported as -3.067%. Moreover, in experiment [8], the MV4-11 %inh is -0.77%.

On to `CCn1c(-c2nonc2N)nc2cncc(C(=O)NCCNC)c21` [SJ000573046-1, FIDE/U1002/66/2], for which the ML-2 %inh in experiment [1] amounted to 17.45%. Besides, the CMS %inh in experiment [2] stood at 12.48%. Besides, in experiment [3], the M07e %inh is on record as 12.62%. For the same molecule, the U937 %inh in experiment [4] amounted to 25.48%. For the same molecule, in experiment [5], the CHRF288-11 %inh was 15.2%. Moreover, in experiment [6], the CMK %inh was 39.87%. Further, the MOLM-13 %inh in experiment [7] was determined as 9.392%. In addition, the MV4-11 %inh in experiment [8] turned out to be 47.15%.

For the molecule `CC(=O)O[C@H]1C[C@@H]2CC[C@@H]3[C@H](CC[C@@]4(C)[C@H]3C[C@H](N3CC[N+](C)(C)CC3)[C@@H]4OC(C)=O)[C@@]2(C)C[C@@H]1N1CC[N+](C)(C)CC1` [SJ000555714-1, PIPECURIUM BROMIDE], the ML-2 %inh in experiment [1] was found to be 0.08837%. Besides, the CMS %inh in experiment [2] is listed as 0.5876%. In experiment [3], the M07e %inh is recorded as -1.4%. Moreover, the U937 %inh in experiment [4] was -1.326%. The CHRF288-11 %inh in experiment [5] was -2.142%. In experiment [6], the CMK %inh is listed as -9.103%. Besides, the MOLM-13 %inh in experiment [7] is -1.447%. The MV4-11 %inh in experiment [8] was determined as 0.2738%.

Consider `Cn1cc(C2=C(c3cn(CCO)c4ccccc34)C(=O)NC2=O)c2ccccc21` [SJ000581041-1], for which, in experiment [1], the ML-2 %inh was determined as 20.21%. The CMS %inh in experiment [2] amounted to 9.772%. Further, the M07e %inh in experiment [3] was determined as 13.99%. For the same molecule, the U937 %inh in experiment [4] stood at 14.77%. For the same molecule, the CHRF288-11 %inh in experiment [5] was 72.88%. For the same molecule, the CMK %inh in experiment [6] is listed as 80.06%. For the same molecule, the MOLM-13 %inh in experiment [7] was found to be 54.73%. Also, the MV4-11 %inh in experiment [8] was determined as 18.13%.

Consider `CCOC(=O)C1=C(C)NC(C)=C(C(=O)OC)C1c1cccc(Cl)c1Cl` (single isomer, unassigned) [SJ000287293-7, FELODIPINE], for which the ML-2 %inh in experiment [1] (ML-2 %inh, 10 µM) stood at 2.538%. Further, in experiment [2] (CMS %inh, 10 µM), the CMS %inh is listed as -2.469%. In addition, in experiment [3] (M07e %inh, 10 µM), the M07e %inh is listed as 7.937%. In experiment [4] (U937 %inh, 10 µM), the U937 %inh is given as 12.4%. Further, in experiment [5] (CHRF288-11 %inh, 10 µM), the CHRF288-11 %inh is listed as 33.72%. Further, the CMK %inh in experiment [6] (CMK %inh, 10 µM) was 36.03%. Moreover, in experiment [7] (MOLM-13 %inh, 10 µM), the MOLM-13 %inh is on record as 16.76%. The MV4-11 %inh in experiment [8] (MV4-11 %inh, 10 µM) is 12.83%.

Consider `COc1ccc2ncnc(Nc3ccc(OCc4ccccc4)cc3)c2c1` [SJ000573210-1, 0142W 95C*D], for which, in experiment [1], the ML-2 %inh is -0.6695%. In addition, the CMS %inh in experiment [2] came to 0.3657%. Moreover, the M07e %inh in experiment [3] was -3.821%. In addition, the U937 %inh in experiment [4] is -0.1655%. Also, in experiment [5], the CHRF288-11 %inh is on record as -3.911%. Besides, in experiment [6], the CMK %inh was found to be 1.162%. In addition, the MOLM-13 %inh in experiment [7] stood at 13.25%. In addition, in experiment [8], the MV4-11 %inh worked out at 1.39%.

On to `CC1(OC(=O)c2cccs2)C(=O)C=C2C=C3CCCN3C=C2C1=O` (centres unmarked) [SJ000580493-1], for which the ML-2 %inh in experiment [1] is listed as -0.6831%. For the same molecule, the CMS %inh in experiment [2] turned out to be 2.99%. Further, the M07e %inh in experiment [3] worked out at 2.009%. Besides, the U937 %inh in experiment [4] was determined as 1.415%. In experiment [5], the CHRF288-11 %inh worked out at 4.124%. Besides, the CMK %inh in experiment [6] stood at 4.862%. The MOLM-13 %inh in experiment [7] is on record as -0.7413%. The MV4-11 %inh in experiment [8] is on record as 2.091%.

In the case of `CCN1CCC(CC(=O)Nc2n[nH]c3nnc(-c4cccc(F)c4F)cc23)CC1` [SJ000573064-1, VB101259-076A3], in experiment [1], the ML-2 %inh is recorded as 6.747%. Further, the CMS %inh in experiment [2] was 104.4%. The M07e %inh in experiment [3] was found to be 13.75%. In experiment [4], the U937 %inh is listed as 13.36%. Besides, in experiment [5], the CHRF288-11 %inh worked out at 30.8%. Moreover, in experiment [6], the CMK %inh amounted to 96.65%. The MOLM-13 %inh in experiment [7] was determined as 13.03%. In addition, the MV4-11 %inh in experiment [8] amounted to 39.53%.

For `CCOCCn1c(N2CCCN(C)CC2)nc2ccccc21` [SJ000556751-1, EMEDASTINE DIFUMARATE], the ML-2 %inh in experiment [1] is recorded as 1.809%. Besides, the CMS %inh in experiment [2] was -0.1534%. For the same molecule, the M07e %inh in experiment [3] was 0.9271%. Moreover, in experiment [4], the U937 %inh turned out to be 0.3803%. The CHRF288-11 %inh in experiment [5] is reported as -0.4103%. In addition, the CMK %inh in experiment [6] was -0.9686%. Besides, the MOLM-13 %inh in experiment [7] is 8.131%. In experiment [8], the MV4-11 %inh is -1.235%.

For the molecule `COc1cc(N2CCN(C(C)C)CC2)ccc1Nc1nc(Nc2ccc(F)cc2C(=O)NC[C@@H](O)CO)c2cc[nH]c2n1` [SJ000573301-1, U23662/84/1], the ML-2 %inh in experiment [1] is on record as 23.23%. In addition, the CMS %inh in experiment [2] is recorded as -0.165%. The M07e %inh in experiment [3] is given as 18.85%. The U937 %inh in experiment [4] is on record as 47.45%. The CHRF288-11 %inh in experiment [5] worked out at 7.394%. The CMK %inh in experiment [6] was -2.061%. Also, in experiment [7], the MOLM-13 %inh came out at 61.15%. Further, the MV4-11 %inh in experiment [8] is given as 49.16%.

For `COc1ccc(-c2coc3ncnc(N)c23)cc1` [SJ000573323-1, R6872/61/3], the ML-2 %inh in experiment [1] was -3.247%. Moreover, the CMS %inh in experiment [2] is -2.18%. The M07e %inh in experiment [3] is reported as -2.594%. Further, the U937 %inh in experiment [4] is reported as 2.094%. For the same molecule, the CHRF288-11 %inh in experiment [5] worked out at 1.277%. The CMK %inh in experiment [6] worked out at 0.752%. Moreover, the MOLM-13 %inh in experiment [7] stood at 0.9708%. The MV4-11 %inh in experiment [8] was -1.377%.

Consider `CC(C)(C)c1cnc(CSc2cnc(NC(=O)C3CCNCC3)s2)o1` [SJ000574284-1, BMS-387032 | SNS-032], for which the ML-2 %inh in experiment [1] is listed as 59.52%. In addition, the CMS %inh in experiment [2] turned out to be 97.36%. The M07e %inh in experiment [3] is recorded as 111.6%. For the same molecule, the U937 %inh in experiment [4] was 69.97%. Also, the CHRF288-11 %inh in experiment [5] turned out to be 54.06%. The CMK %inh in experiment [6] was determined as 91.14%. The MOLM-13 %inh in experiment [7] stood at 98.7%. Besides, in experiment [8], the MV4-11 %inh is recorded as 73.5%.

In the case of `COc1cc[nH]c1/C=C1\C(=O)Nc2ccc([N+](=O)[O-])c(N3CC[C@@H](O)C3)c21` [SJ000581128-1], the ML-2 %inh in experiment [1] was determined as 60.5%. Also, in experiment [2], the CMS %inh stood at 95.24%. The M07e %inh in experiment [3] is 106%. The U937 %inh in experiment [4] came out at 87.66%. For the same molecule, the CHRF288-11 %inh in experiment [5] came out at 53.94%. Further, the CMK %inh in experiment [6] turned out to be 98.31%. Besides, in experiment [7], the MOLM-13 %inh was determined as 123.9%. Moreover, the MV4-11 %inh in experiment [8] came out at 84.07%.

(Values after PMC6522510 (Nature Communications, 2019).)
